Assay results taken from patent US10865412B2, “Therapeutics targeting IGFBP7 for the treatment or prevention of heart failure and metabolic diseases” (Ottawa Heart Institute Research Corporation, priority 2016, dated 2020).

Assays:
[1] = system: IGF-1/Insulin induced AKT and Gsk3β activation; assay: IGF-1/Insulin induced Akt and Gsk3β activation in HCM with internal over-expression of IGFBP7; assay type: cell-based, human; details: HCM transfected with IGFBP7 plasmid, inhibitor 500 nM for 1 h before IGF-1 or Insulin 15 min
[2] = system: IGF-1/Insulin induced AKT activation; assay: IGF-1/Insulin induced AKT/GSK3β activation (immunoblotting) in human cardiac myocytes; assay type: cell-based; details: HCM with IGFBP7 siRNA, ppp pre-treatment 1 or 10 μM for 1 h, IGF-1 (100 ng/ml) 15 min
Experimental: Indeed, in FIG. 9, human cardiac myocytes were treated with (−)control siRNA and IGFBP7 siRNA for 48 h, followed by replacement with basic medium (serum and growth factors withdrew) for 4 h. In FIG. 9(a), the cells were then stimulated with IGF1 (100 ng/ml) or Insulin (4 μg/ml) for 15 min, before lyses of the cell for immunoblotting. Representative immunoblotting of phosphor-AKT, total AKT, phosph-GSK3β and total GSK3β are shown. GAPDH was used as loading control. In FIG. 9(b), before adding IGF-1, cells were pre-treated with IGF-1R inhibitor Picropodophyllin (PPP) ppp at 1 or 10 μM for 1 h, and finally stimulated with IGF-1 (100 ng/ml) for 15 min. Representative immunoblotting of phosphor-AKT and total AKT showing reduced AKT activity in IGFBP7 knock down cells is shown. GAPDH was used as loading control. […] GAPDH were used as loading control.
Whole-cell lysates from tissue and cell samples were prepared on ice with Cell Lysis Buffer (Cell Signaling, 9803) containing a Complete cocktail of proteases inhibitors (Roche Applied Science, 05892791001). […] The supernatants were collected and protein concentrations determined using the Bio-Rad Bradford protein assay (Bio-Rad, 500-0006). […] The intensity of the chemiluminescence signals were detected by using the ChemiDoc XRS+ System (Bio-Rad, 1708265) and quantified using Image Lab software (version 5.2; Bio-Rad). […]

[3] = system: IGF-1 Receptor β and Akt phosphorylation; assay: IGF-1 receptor-dependent signaling (immunoblotting) in IGFBP7 deficient and WT MEF; assay type: cell-based; details: ppp 1 or 10 μM for 1 h, IGF-1 (100 ng/ml) 15 min
IGFBP7 protein = IGFBP7 protein expression (immunoblotting) in rat neonatal cardiomyocytes treated with hypertrophic stimuli; assay type: cell-based; details: vs solvent treated control
Experimental: In order to investigate where Igfbp7 is localized under stress, immunofluorescent staining were used to visualize Igfbp7 in rNCM 2 and 24 hours post treatment. As shown in FIG. 3(b), Igfbp7 were evenly distributed in untreated control cells. Hypertrophic stimuli not only led to increased Igfbp7 expression, but also led to Igfbp7 being localized to the cell membrane. Co-immunostaining with FM1-43 as shown (FIG. 3(c)), upon isoproterenol treatment, Igfbp7 (red) not only moved to cell membrane region, but also co-localized with FM1-43 labeled membrane bound vesicle (green), indicating Igfbp7 was trapped into the membrane bound vesicles for secretion.
NC represents solvent treated control. FIGS. 3(b) and 3(c) show representative confocal microscopy images. […] IGFBP7 was immunofluoresently stained with Alexa Fluor 555 labeled anti-IGFBP7 antibody.
Whole-cell lysates from tissue and cell samples were prepared on ice with Cell Lysis Buffer (Cell Signaling, 9803) containing a Complete cocktail of proteases inhibitors (Roche Applied Science, 05892791001). Lysates were cleared by centrifugation at 12,000 rpm for 10 min. The supernatants were collected and protein concentrations determined using the Bio-Rad Bradford protein assay (Bio-Rad, 500-0006). 20 μg of protein lysate were separated by Bolt Bis-Tris Plus mini Gel System (ThermoFisher) and electrophoretically transferred to PVDF membranes (Bio-Rad, 162-0177). Membranes were incubated overnight at 4° C. with antibodies reactive to the following proteins: IGFBP7 (Abcam, ab171085, 1:1000), CTGF (Abcam, ab6992, 1:1000), 53BP1 (Santa Cruz Biotechnology, sc-22760, 1:200), p21 (Santa Cruz Biotechnology, sc-397, 1:200), Acetyl-p53 (Lys379) (Cell Signaling, #2570, 1:1000), p53 (1C12) (Cell Signaling, #2524, 1:1000), Phospho-IRS-1 (Ser612) (Cell Signaling, #3203, 1:500), Phospho-IRS-1 (Ser318) (Cell Signaling, #5610, 1:500), IRS-1 (Cell signaling, #3407, 1:500), Phospho-Akt (Ser473) (Cell Signaling, #4060, 1:1000), Phospho-Akt (Thr308) (Cell Signaling, #4056, 1:1000), Akt (pan) (Cell Signaling, #4691, 1:1000), Phospho-Erk1/2 (Thr202/Tyr204) (Cell Signaling, #4307, 1:1000), Erk1/2 (Cell Signaling, #9102, 1:1000), Phospho-GSK-3β (Ser9) (Cell Signaling, #9323, 1:1000), GSK-3β (Cell Signaling, #9315, 1:1000), Phospho-IGF-1 Receptor β ((Thy1135) (Cell Signaling, #3918, 1:500), IGF-1 Receptor β (Cell Signaling, #9750, 1:500). […] The intensity of the chemiluminescence signals were detected by using the ChemiDoc XRS+ System (Bio-Rad, 1708265) and quantified using Image Lab software (version 5.2; Bio-Rad). […]

[4] = system: IGF-1/Insulin induced AKT and Gsk3β activation; assay: Effect of external recombinant IGFBP7 protein on IGF-1/Insulin induced AKT and Gsk3β activation in HCM; assay type: cell-based, human; details: HCM pretreated with recombinant protein for 2 h, then IGF-1 or insulin 15 min
Experimental: HCM were pretreated with recombinant IGFBP7 protein at indicated concentration for 2 h, followed by IGF-1 or insulin induction for 15 min. Vinculin was used as loading control.
Whole-cell lysates from tissue and cell samples were prepared on ice with Cell Lysis Buffer (Cell Signaling, 9803) containing a Complete cocktail of proteases inhibitors (Roche Applied Science, 05892791001). Lysates were cleared by centrifugation at 12,000 rpm for 10 min. The supernatants were collected and protein concentrations determined using the Bio-Rad Bradford protein assay (Bio-Rad, 500-0006). 20 μg of protein lysate were separated by Bolt Bis-Tris Plus mini Gel System (ThermoFisher) and electrophoretically transferred to PVDF membranes (Bio-Rad, 162-0177). […] The intensity of the chemiluminescence signals were detected by using the ChemiDoc XRS+ System (Bio-Rad, 1708265) and quantified using Image Lab software (version 5.2; Bio-Rad). […]
To generate IGFBP7 expression plasmid, human IGFBP7 CDS with 6× His Epitope tag added to the 3′-end were generated by GeneArt gene synthesis and subcloned into pcDNA3.4 TOPO TA Cloning vector (ThermoFisher) to make plasmid pcDNA3.4-hIGFBP7-6× His. […] Expression of secreted IGFBP7-6× His recombinant protein in culture media was monitored daily by immonoblotting with anti 6× His Epitope Tag antibody (ThermoFisher, MA1-21315). […]

With `C[C@@]1(C(=O)Nc2ccc(F)nc2)CCCN1c1nc(Nc2cc(C3CC3)n[nH]2)c2cccn2n1` [BMS-754807] the “IGF-1/Insulin induced AKT and GSK3β activation increased by internal over-expression of IGFBP7” value [1] was “blocked”.

In the case of `COc1cc([C@@H]2c3cc4c(cc3[C@H](O)[C@H]3COC(=O)[C@@H]23)OCO4)cc(OC)c1OC` [Picropodophyllin, picropodophyllin], the “AKT activation after IGF-1 stimulation in IGFBP7 knock down cells” value [2] is reported as “further reduced”, the “AKT phosphorylation in IGFBP7 deficient MEF” value [3] is reported as “further reduced” and the “AKT phosphorylation in WT MEF” value [3] is reported as “not in WT MEF”. The “IGF-1R phosphorylation in IGFBP7 deficient MEF” value [3] was “further reduced”.

In the case of “angiotensin II (DRVYIHPF; Angiotensin-2; UniProt P01019 25-32, looked up) [hypertrophic stimulus]”, the IGFBP7 protein expression (IGFBP7 protein; 100 nM angiotensin II) is reported as “significantly up-regulated”.

insulin was tested, and the IGFBP7 protein expression (IGFBP7 protein; insulin 4 μg/ml) was “significantly up-regulated”.

In the case of `CC(C)NCC(O)c1ccc(O)c(O)c1` (stereo not shown) [isoproterenol], the IGFBP7 protein expression (IGFBP7 protein; isoproterenol 100 nM) is reported as “significantly up-regulated”.

In the case of `CNC[C@H](O)c1cccc(O)c1` [phenylephrine], the IGFBP7 protein expression (IGFBP7 protein; phenylephrine 200 nM) is reported as “significantly up-regulated”.

B1: recombinant IGFBP7 protein: recombinant human IGFBP7 protein with 6× His tag expressed in Expi293F cells (protein, UniProt Q16270 27-282, looked up)
Insulin-like growth …: SSSDTCGPCEPASCPPLPPLGCLLGETRDACGCCPMCARGEGEPCGGGGAGRGYCAPGMECVKSRKRRKGKAGAAAGGPGVSGVCVCKSRYPVCGSDGTTYPSGCQLRAASQRAESRGEKAITQVSKGTCEQGPSIVTPPKDIWNVTGAQVYLSCEVIGIPTPVLIWNKVKRGHYGVQRTELLPGDRDNLAIQTRGGPEKHEVTGWVLVSPLSKEDAGEYECHASNSQGQASASAKITVVDALHEIPVKKGEGAEL
modifications: 6xHis tag
notes: recombinant human IGFBP7 protein with 6× His tag expressed in Expi293F cells
In the case of B1, the “Effect on IGF-1/Insulin induced AKT and Gsk3β activation” value [4] is reported as “no observed effect”.
